Measured values taken from publication PMC3472114 (Journal of molecular biology, 2012).

T1: galactosamine-6-sulfatase (GALNS) (Homo sapiens, UniProt P34059)
T1 sequence (P34059 27-522): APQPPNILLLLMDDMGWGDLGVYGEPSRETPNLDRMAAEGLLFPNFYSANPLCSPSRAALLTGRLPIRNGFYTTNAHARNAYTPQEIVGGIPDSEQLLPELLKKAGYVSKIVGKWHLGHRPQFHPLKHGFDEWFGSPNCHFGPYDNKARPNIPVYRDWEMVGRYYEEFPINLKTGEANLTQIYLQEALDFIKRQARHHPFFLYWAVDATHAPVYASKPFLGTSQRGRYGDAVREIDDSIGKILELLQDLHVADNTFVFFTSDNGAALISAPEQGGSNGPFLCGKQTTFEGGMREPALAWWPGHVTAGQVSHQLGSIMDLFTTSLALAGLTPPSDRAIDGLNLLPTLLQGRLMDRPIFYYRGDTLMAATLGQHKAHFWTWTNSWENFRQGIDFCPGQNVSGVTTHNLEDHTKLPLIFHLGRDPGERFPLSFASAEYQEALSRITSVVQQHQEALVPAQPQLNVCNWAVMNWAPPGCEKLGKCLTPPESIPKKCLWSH


Tests used:
[1] = biological target: T1, galactosamine-6-sulfatase (GALNS); experiment: biochemical
[2] = substrate: Cc1cc(=O)oc2cc(O[C@@H]3O[C@H](COS(=O)(=O)O)[C@H](O)[C@H](O)[C@H]3O)ccc12; type: biochemical, Homo sapiens; conditions: Ca2+; Cys79 modified to formylglycine/dihydroxyalanine (DHA) active site

Molecule	Ki [1] [µM]	Km [2] [mM]
O=S(=O)(O)O [sulfate]	570 ± 150	–
galactosamine-6-sulfatase (GALNS) (Homo sapiens) (protein) APQPPNILLLLMDDMGWGDLGVYGEPSRETPNLDRMAAEGLLFPNFYSANPLCSPSRAALLTGRLPIRNGFYTTNAHARNAYTPQEIVGGIPDSEQLLPELLKKAGYVSKIVGKWHLGHRPQFHPLKHGFDEWFGSPNCHFGPYDNKARPNIPVYRDWEMVGRYYEEFPINLKTGEANLTQIYLQEALDFIKRQARHHPFFLYWAVDATHAPVYASKPFLGTSQRGRYGDAVREIDDSIGKILELLQDLHVADNTFVFFTSDNGAALISAPEQGGSNGPFLCGKQTTFEGGMREPALAWWPGHVTAGQVSHQLGSIMDLFTTSLALAGLTPPSDRAIDGLNLLPTLLQGRLMDRPIFYYRGDTLMAATLGQHKAHFWTWTNSWENFRQGIDFCPGQNVSGVTTHNLEDHTKLPLIFHLGRDPGERFPLSFASAEYQEALSRITSVVQQHQEALVPAQPQLNVCNWAVMNWAPPGCEKLGKCLTPPESIPKKCLWSH	–	13 ± 2
